Measurements from patent US10364247B2, “Preparation and use of novel protein kinase inhibitors” (Ruijin Hospital Affiliated to Shanghai Jiao Tong University …, priority 2015, dated 2019).
pIC50: −log10 of the molar value.

Tests used:
Format in all cases: cell-based, murine
BaF3-NRASD12 = test: Oncogenic RAS dependent cell proliferation (CellTiter Glo); settings: Mus musculus, BaF3-NRASD12 cells, 48 hours, read-out: NRas-BaF3 IC50
Protocol: (§1) The BaF/3 cell line transformed with oncogenic NRAS or KRAS (BaF/3-NRASD12 or BaF/3-KRASD12) and the parental BaF/3 cells were used to measure the abilities of compounds of the invention to suppress RAS transformation (Table 5). Cells were seeded at a density of 5000 cells/well into 96-well plates. […] The background control wells to which media with no cells added and the vehicle control wells were included on each plate in triplicate. Cell viability was determined using CellTiter Glo Assay (Promega) according to manufacture's instruction with a minor modification of diluting 1 part CellTiter Glo reagent to 4 parts phosphate buffered saline (PBS) before use. The luminescence value was read out by an Envision (PerkinElmer).

BaF3-KRASD12 = test: as above; settings: Mus musculus, BaF3-KRASD12 cells, 48 hours, read-out: KRas-BaF3 IC50
Protocol: as §1

BaF3-TEL-INSR = target: T1, BaF3-TEL-INSR (Homo sapiens, UniProt P06213); test: Antiproliferative activity, kinase-dependent Ba/F3 cells (MTT/MTS); settings: 48 hours, cell viability, read-out: Tel-INSR IC50
T1 construct: fused on or other part: P41212 (Transcription factor ETV6)
Protocol: (§2) Following up on the kinome data, the ability of compounds disclosed in the present invention to inhibit proliferation of cells that are dependent on selected protein kinases was tested. […] In addition, compounds were assayed to measure their capacity to inhibit TIE1, LYN, EML4-ALK, INSR and HCK kinases.
(§3) The murine cell line used is the BaF/3 cell line transformed with BCR/ABL cDNA (BaF/3-p210) or BCR/ABL-T315I mutant (Ba/F3-p210-T315I). These cells are maintained in RPMI/10% fetal calf serum (RPMI/FCS) supplemented with penicillin 50 μg/mL, streptomycin 50 μg/mL and L-glutamine […]. Untransformed BaF/3 cells (Wt-BaF/3) are similarly maintained with the addition of 15% of WEHI conditioned medium as a source of IL3.
(§4) Cells were seeded at a density of 20,000 cells/well into 96-well plates.
(§5) The background control wells to which media with no cells added and the vehicle control wells were included on each plate in triplicate. Cell viability was determined using MTT (Sigma, St. Louis, Mo., USA) and MTS (Promega, Madison, Wis., USA), according to the manufacturer's instructions. Results were analyzed using GraphPad Prism 5.0 (GraphPad Software, San Diego, Calif.) and IC50 values were calculated from cell viability dose-response curves and defined as the concentration of compound needed to reduce cell viability to 50% of a vehicle control (DMSO) (Table 3).
(§6) Cell proliferation assays of compounds of the invention against TIE1, LYN, EML4-ALK, INSR and Hck were conducted using identical methods as described above for BCR/ABL, except that BaF3-TEL-TIE1, BaF3-TEL-LYN, BaF3-EML4-ALK, BaF3-TEL-INSR, and BaF3-TEL-HCK are used instead of BaF3-BCR/ABL (Table 3 and 4).

BaF3-TEL-HCK = target: T2, BaF3-TEL-HCK (Homo sapiens, UniProt P08631); test: as above; settings: 48 hours, cell viability, read-out: Tel-HCK IC50
T2 construct: fused on or other part: P41212 (Transcription factor ETV6)
Protocol: as §2, §3, §4, §5, §6

BaF3-TEL-TIE1 = target: T3, BaF3-TEL-TIE1 (Homo sapiens, UniProt P35590); test: as above; settings: 48 hours, cell viability, read-out: tel-TIE1 IC50
T3 construct: fused on or other part: P41212 (Transcription factor ETV6)
Protocol: as §2, §3, §4, §5, §6

BaF3-TEL-LYN = target: T4, BaF3-TEL-LYN (Homo sapiens, UniProt P07948); test: as above; settings: 48 hours, cell viability, read-out: tel-LYN IC50
T4 construct: fused on or other part: P41212 (Transcription factor ETV6)
Protocol: as §2, §3, §4, §5, §6

BaF3-EML4-ALK = target: T5, BaF3-EML4-ALK (Homo sapiens, UniProt Q9UM73); test: as above; settings: 48 hours, cell viability, read-out: EML4-ALK IC50
T5 construct: fused on or other part: Q9HC35 (Echinoderm microtubule-associated protein-like 4)
Protocol: as §2, §3, §4, §5, §6

Wt-BaF3 = test: Parental Ba/F3 cell proliferation (CellTiter Glo); settings: Mus musculus, parental BaF/3 cells, 48 hours
Protocol: as §3, §1

BaF3-BCR/ABL = target: T6, BaF3-BCR/ABL (Homo sapiens, UniProt P00519); test: Antiproliferative activity, kinase-dependent Ba/F3 cells (MTT/MTS); settings: 48 hours, cell viability, read-out: BCR/ABL IC50
T6 construct: fused on or other part: P11274 (Breakpoint cluster region protein)
Protocol: as §2, §3, §4, §5

BaF3-BCR/ABL-T315I = target: T7, BaF3-BCR/ABL-T315I (Homo sapiens, UniProt P00519, T315I, cells depend on it); test: as above; settings: 48 hours, cell viability, read-out: BCR/ABL T315I IC50
T7 construct: fused on or other part: P11274 (Breakpoint cluster region protein)
Protocol: as §2, §3, §4, §5

T1 sequence (P06213 whole entry, stated change not applied, the tested form may be a part): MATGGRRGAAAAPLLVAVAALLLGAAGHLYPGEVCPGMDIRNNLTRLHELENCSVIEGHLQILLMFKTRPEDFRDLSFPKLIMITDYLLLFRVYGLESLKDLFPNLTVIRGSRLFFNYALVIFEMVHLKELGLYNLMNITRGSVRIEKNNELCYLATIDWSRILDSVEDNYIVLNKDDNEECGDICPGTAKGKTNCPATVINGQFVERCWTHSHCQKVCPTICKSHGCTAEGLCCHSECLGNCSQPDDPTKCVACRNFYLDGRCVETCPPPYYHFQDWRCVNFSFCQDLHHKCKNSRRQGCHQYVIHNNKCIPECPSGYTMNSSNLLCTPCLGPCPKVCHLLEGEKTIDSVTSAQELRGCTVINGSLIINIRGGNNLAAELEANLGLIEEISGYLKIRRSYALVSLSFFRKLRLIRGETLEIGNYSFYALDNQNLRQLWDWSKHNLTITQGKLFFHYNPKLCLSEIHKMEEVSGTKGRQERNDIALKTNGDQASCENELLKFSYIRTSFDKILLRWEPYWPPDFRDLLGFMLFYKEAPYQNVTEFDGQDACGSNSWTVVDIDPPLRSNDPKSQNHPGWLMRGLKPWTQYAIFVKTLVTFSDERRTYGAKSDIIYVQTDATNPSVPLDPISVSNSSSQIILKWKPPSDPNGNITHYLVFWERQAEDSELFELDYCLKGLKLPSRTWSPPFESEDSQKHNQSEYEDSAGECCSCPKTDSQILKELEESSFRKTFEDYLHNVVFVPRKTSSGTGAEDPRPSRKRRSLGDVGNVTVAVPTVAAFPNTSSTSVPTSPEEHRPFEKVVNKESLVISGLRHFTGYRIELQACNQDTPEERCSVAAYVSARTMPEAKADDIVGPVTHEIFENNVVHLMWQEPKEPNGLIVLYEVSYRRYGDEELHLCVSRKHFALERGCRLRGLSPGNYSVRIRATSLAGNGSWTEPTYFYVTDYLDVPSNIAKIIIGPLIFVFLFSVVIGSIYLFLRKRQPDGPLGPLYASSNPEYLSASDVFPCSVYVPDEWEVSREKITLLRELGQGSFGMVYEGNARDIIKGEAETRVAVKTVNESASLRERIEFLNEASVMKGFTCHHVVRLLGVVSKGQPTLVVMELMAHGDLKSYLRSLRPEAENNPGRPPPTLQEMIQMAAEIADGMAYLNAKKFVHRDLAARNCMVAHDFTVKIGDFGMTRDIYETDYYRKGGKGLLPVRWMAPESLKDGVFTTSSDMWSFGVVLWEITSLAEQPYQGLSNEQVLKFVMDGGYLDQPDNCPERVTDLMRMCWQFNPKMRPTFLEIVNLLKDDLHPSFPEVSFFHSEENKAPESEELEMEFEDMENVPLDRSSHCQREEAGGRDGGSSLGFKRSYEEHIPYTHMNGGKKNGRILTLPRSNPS
T5 sequence (Q9UM73 whole entry, change not shown, the tested form may be a part): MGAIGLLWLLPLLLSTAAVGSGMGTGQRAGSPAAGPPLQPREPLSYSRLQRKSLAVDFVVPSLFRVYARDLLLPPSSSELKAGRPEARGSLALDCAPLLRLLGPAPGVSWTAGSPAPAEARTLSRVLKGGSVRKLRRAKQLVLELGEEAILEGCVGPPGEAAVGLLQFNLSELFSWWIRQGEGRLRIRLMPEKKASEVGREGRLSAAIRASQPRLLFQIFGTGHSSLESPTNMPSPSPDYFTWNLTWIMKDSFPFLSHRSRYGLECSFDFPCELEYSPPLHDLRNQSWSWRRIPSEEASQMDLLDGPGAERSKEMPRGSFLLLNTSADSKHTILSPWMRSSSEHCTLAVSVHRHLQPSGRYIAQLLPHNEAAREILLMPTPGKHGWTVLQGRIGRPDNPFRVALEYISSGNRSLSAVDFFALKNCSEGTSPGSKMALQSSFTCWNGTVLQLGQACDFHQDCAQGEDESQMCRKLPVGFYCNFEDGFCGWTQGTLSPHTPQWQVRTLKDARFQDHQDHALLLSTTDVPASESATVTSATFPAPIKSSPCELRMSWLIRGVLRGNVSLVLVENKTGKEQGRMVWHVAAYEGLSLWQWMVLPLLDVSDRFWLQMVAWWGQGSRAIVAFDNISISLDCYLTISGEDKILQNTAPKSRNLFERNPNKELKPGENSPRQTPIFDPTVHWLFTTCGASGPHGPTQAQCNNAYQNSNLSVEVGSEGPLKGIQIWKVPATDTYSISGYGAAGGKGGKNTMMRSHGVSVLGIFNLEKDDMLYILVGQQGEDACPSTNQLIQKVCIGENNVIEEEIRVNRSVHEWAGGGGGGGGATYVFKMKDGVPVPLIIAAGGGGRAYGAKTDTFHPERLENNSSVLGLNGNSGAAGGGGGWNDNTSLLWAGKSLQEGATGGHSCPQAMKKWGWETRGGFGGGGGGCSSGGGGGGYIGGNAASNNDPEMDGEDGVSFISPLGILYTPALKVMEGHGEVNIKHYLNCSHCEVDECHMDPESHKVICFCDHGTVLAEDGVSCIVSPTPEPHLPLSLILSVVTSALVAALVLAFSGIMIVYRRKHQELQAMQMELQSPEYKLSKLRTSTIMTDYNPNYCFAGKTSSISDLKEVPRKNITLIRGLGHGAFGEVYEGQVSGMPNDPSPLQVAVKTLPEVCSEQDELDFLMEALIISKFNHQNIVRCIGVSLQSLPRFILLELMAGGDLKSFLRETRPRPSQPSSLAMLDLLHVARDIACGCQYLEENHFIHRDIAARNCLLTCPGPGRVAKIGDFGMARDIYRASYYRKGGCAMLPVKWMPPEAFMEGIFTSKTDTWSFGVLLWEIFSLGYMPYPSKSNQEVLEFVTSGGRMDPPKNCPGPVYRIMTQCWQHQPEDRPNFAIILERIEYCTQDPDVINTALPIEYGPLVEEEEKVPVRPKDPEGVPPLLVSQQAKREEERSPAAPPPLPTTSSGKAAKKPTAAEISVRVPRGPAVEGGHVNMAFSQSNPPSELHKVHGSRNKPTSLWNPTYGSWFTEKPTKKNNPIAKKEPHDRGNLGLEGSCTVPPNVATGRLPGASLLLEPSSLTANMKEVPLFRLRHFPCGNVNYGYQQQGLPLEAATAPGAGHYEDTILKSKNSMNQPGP
T4 sequence (P07948 whole entry, change not shown, the tested form may be a part): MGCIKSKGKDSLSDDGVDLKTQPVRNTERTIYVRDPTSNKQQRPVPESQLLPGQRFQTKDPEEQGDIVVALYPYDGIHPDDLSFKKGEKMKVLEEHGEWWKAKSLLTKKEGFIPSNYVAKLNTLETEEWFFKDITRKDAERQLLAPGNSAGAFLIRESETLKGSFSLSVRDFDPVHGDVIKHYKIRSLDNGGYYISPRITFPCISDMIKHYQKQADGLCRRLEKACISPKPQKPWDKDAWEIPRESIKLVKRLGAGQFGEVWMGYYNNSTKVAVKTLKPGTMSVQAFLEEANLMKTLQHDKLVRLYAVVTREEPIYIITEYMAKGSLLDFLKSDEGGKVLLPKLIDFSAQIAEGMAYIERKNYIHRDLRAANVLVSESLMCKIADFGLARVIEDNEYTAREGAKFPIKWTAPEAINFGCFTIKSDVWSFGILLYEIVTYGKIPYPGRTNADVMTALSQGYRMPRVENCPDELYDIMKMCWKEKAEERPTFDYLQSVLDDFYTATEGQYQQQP
T2 sequence (P08631 whole entry, change not shown, the tested form may be a part): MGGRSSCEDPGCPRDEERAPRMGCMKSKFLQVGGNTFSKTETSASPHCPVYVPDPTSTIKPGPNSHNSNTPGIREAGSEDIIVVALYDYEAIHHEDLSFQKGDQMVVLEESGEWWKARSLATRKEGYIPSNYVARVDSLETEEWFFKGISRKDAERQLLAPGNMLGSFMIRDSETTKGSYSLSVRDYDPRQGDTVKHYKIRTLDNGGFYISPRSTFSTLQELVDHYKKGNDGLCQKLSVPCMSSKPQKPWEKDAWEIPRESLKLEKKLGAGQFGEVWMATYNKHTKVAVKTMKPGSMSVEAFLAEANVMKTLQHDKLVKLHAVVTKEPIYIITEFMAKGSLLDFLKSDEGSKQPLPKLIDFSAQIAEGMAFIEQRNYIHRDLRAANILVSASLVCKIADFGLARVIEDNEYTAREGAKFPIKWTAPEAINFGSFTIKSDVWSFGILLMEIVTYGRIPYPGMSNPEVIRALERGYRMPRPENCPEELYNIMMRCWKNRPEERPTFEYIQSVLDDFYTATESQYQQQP

SMILES	pIC50 (BaF3-NRASD12)	pIC50 (BaF3-KRASD12)	GI50 (BaF3-TEL-INSR)	GI50 (BaF3-TEL-HCK)	GI50 (BaF3-TEL-TIE1)	GI50 (BaF3-TEL-LYN)	GI50 (BaF3-EML4-ALK)	pIC50 (Wt-BaF3)	GI50 (BaF3-BCR/ABL)	GI50 (BaF3-BCR/ABL-T315I)
Cc1ccc(NC(=O)c2cccc(C(F)(F)F)c2)cc1N1Cc2cnc(NCCN(C)C)nc2N(C)C1 [IA-2, N-(3-(7-((2-(dimethylamino)ethyl)amino)-1-methyl-1,4-dihydropyrimido[4,5-d]pyrimidin-3(2H)-yl)-4-methylphenyl)-3-(trifluoromethyl)benzamide]	5.47	5.40	1.33 µM	2.56 µM	1.59 µM	1.32 µM	~2.78 µM	5.34	> 10 µM	–
Cc1ccc(NC(=O)c2cccc(C(F)(F)F)c2)cc1N1Cc2cnc(Nc3cnn(C)c3)nc2N(C)C1 [IA-10, N-(4-methyl-3-(1-methyl-7-((1-methyl-1H-pyrazol-4-yl)amino)-1,4-dihydropyrimido[4,5-d]pyrimidin-3(2H)-yl)phenyl)-3-(trifluoromethyl)benzamide]	5.54	5.34	–	1.77 µM	2.32 µM	1.43 µM	4.64 µM	4.93	0.000251 µM	2.76 µM
Cc1cc(Nc2ncc3c(n2)N(C)CN(c2cc(NC(=O)c4cccc(C(F)(F)F)c4)ccc2C)C3)n(C)n1 [IA-11, N-(3-(7-((1,3-dimethyl-1H-pyrazol-5-yl)amino)-1-methyl-1,4-dihydropyrimido[4,5-d]pyrimidin-3(2H)-yl)-4-methylphenyl)-3-(trifluoromethyl)benzamide]	5.99	5.83	2.28 µM	1.39 µM	0.736 µM	0.927 µM	2.22 µM	4.87	0.00796 µM	1.76 µM
CCN(CC)c1ccc(Nc2ncc3c(n2)N(C)CN(c2cc(NC(=O)c4cccc(C(F)(F)F)c4)ccc2C)C3)cn1 [IA-12, N-(3-(7-((6-(diethylamino)pyridin-3-yl)amino)-1-methyl-1,4-dihydropyrimido[4,5-d]pyrimidin-3(2H)-yl)-4-methylphenyl)-3-(trifluoromethyl)benzamide]	5.64	5.74	0.977 µM	3.07 µM	1.35 µM	1.16 µM	3.19 µM	5.39	0.205 µM	4.5 µM
Cc1ccc(NC(=O)c2cccc(C(F)(F)F)c2)cc1N1Cc2cnc(Nc3ccc(N4CCC(O)CC4)nc3)nc2N(C)C1 [IA-13, N-(3-(7-((6-(4-hydroxypiperidin-1-yl)pyridin-3-yl)amino)-1-methyl-1,4-dihydropyrimido[4,5-d]pyrimidin-3(2H)-yl)-4-methylphenyl)-3-(trifluoromethyl)benzamide]	6.30	6.40	0.32 µM	0.192 µM	0.289 µM	0.132 µM	1.87 µM	5.63	0.00585 µM	0.226 µM
Cc1ccc(NC(=O)c2cccc(C(F)(F)F)c2)cc1N1Cc2cnc(Nc3ccc(N4CCOCC4)nc3)nc2N(C)C1 [IA-15, N-(4-methyl-3-(1-methyl-7-((6-morpholinopyridin-3-yl)amino)-1,4-dihydropyrimido[4,5-d]pyrimidin-3(2H)-yl)phenyl)-3-(trifluoromethyl)benzamide]	6.39	6.41	0.902 µM	0.68 µM	0.355 µM	0.264 µM	1.16 µM	5.75	0.00418 µM	0.132 µM

Continued, in another order:

pIC50 (BaF3-NRASD12)	pIC50 (BaF3-KRASD12)	SMILES	GI50 (BaF3-TEL-INSR)	GI50 (BaF3-TEL-HCK)	GI50 (BaF3-TEL-TIE1)	GI50 (BaF3-TEL-LYN)	GI50 (BaF3-EML4-ALK)	pIC50 (Wt-BaF3)	GI50 (BaF3-BCR/ABL)	GI50 (BaF3-BCR/ABL-T315I)
5.22	5.23	Cc1ccc(Nc2ncc3c(n2)N(C2CCCC2)CN(c2cc(NC(=O)c4cccc(C(F)(F)F)c4)ccc2C)C3)cn1 [IB-3, N-(3-(1-cyclopentyl-7-((6-methylpyridin-3-yl)amino)-1,4-dihydropyrimido[4,5-d]pyrimidin-3(2H)-yl)-4-methylphenyl)-3-(trifluoromethyl)benzamide]	–	3.15 µM	3.82 µM	3.3 µM	5.88 µM	5.01	0.303 µM	9.23 µM
5.31	5.27	Cc1ccc(Nc2ncc3c(n2)N(c2ccccc2)CN(c2cc(NC(=O)c4cccc(C(F)(F)F)c4)ccc2C)C3)cn1 [IB-4, N-(4-methyl-3-(7-((6-methylpyridin-3-yl)amino)-1-phenyl-1,4-dihydropyrimido[4,5-d]pyrimidin-3(2H)-yl)phenyl)-3-(trifluoromethyl)benzamide]	–	4.61 µM	3.68 µM	4.11 µM	> 10 µM	4.77	0.669 µM	–
< 5.00	< 5.00	Cc1ccc(Nc2ncc3c(n2)N(C)CN(c2cc(C(=O)NCCO)ccc2C)C3)cn1 [IC-2, N-(2-hydroxyethyl)-4-methyl-3-(1-methyl-7-((6-methylpyridin-3-yl)amino)-1,4-dihydropyrimido[4,5-d]pyrimidin-3(2H)-yl)benzamide]	–	–	> 10 µM	> 10 µM	> 10 µM	< 5.00	6.36 µM	> 10 µM
< 5.00	< 5.00	Cc1ccc(Nc2ncc3c(n2)N(C)CN(c2cc(C(=O)NCCN4CCOCC4)ccc2C)C3)cn1 [IC-3, 4-methyl-3-(1-methyl-7-((6-methylpyridin-3-yl)amino)-1,4-dihydropyrimido[4,5-d]pyrimidin-3(2H)-yl)-N-(2-morpholinoethyl)benzamide]	–	–	> 10 µM	> 10 µM	> 10 µM	< 5.00	0.217 µM	> 10 µM
< 5.00	< 5.00	CONC(=O)c1ccc(C)c(N2Cc3cnc(Nc4ccc(C)nc4)nc3N(C)C2)c1 [IC-4, N-methoxy-4-methyl-3-(1-methyl-7-((6-methylpyridin-3-yl)amino)-1,4-dihydropyrimido[4,5-d]pyrimidin-3(2H)-yl)benzamide]	–	–	> 10 µM	> 10 µM	> 10 µM	< 5.00	0.0631 µM	> 10 µM
< 5.00	< 5.00	Cc1ccc(Nc2ncc3c(n2)N(C)CN(c2cccc(NC(=O)c4cccc(C(F)(F)F)c4)c2)C3)cn1 [IC-5, N-(3-(1-methyl-7-((6-methylpyridin-3-yl)amino)-1,4-dihydropyrimido[4,5-d]pyrimidin-3(2H)-yl)phenyl)-3-(trifluoromethyl)benzamide]	–	–	9.29 µM	> 10 µM	> 10 µM	4.53	0.94 µM	> 10 µM
5.09	4.99	COc1ccc(NC(=O)c2cccc(C(F)(F)F)c2)cc1N1Cc2cnc(Nc3ccc(C)nc3)nc2N(C)C1 [IC-6, N-(4-methoxy-3-(1-methyl-7-((6-methylpyridin-3-yl)amino)-1,4-dihydropyrimido[4,5-d]pyrimidin-3(2H)-yl)phenyl)-3-(trifluoromethyl)benzamide]	–	–	5.18 µM	~8.23 µM	~9.03 µM	4.64	0.387 µM	8 µM
